The values below are quoted from earlier work in PMC8184532 (European Journal of Clinical Pharmacology, 2021).

The structures appear in SMILES notation. Read-outs that look alike come from different tables or passages of the source.

For series [1] the following is noted: coadministered with ritonavir; Stader et al.

For the molecule `CCOC(=O)C1=C(COCCN)NC(C)=C(C(=O)OC)C1c1ccccc1Cl` (stereo not shown) [amlodipine], the “increase in amlodipine exposure” value in series [1] was 90%; the “increase in amlodipine exposure” value (coadministered with antiviral agents for chronic hepatitis C or ritonavir-boosted indinavir, non-compartmental analyses) was 2 fold; the “increase in amlodipine exposure” value (coadministered with ritonavir-boosted indinavir, healthy volunteers) is listed as 90%; the “increase in amlodipine exposure” value (in the presence of diltiazem, a CYP3A4 inhibitor, summary of product characteristics) was 60%.
